Data taken from patent US20100298300A1, “TRIAZOLOPYRAZINE COMPOUNDS USEFUL FOR THE TREATMENT OF DEGENERATIVE & INFLAMMATORY DISEASES” (priority 2006, published 2010).

How the values were obtained:
[1] = system: MMP1 expression by activated primary synovial fibroblasts; assay: 'MMP assay': MMP1 expression by complex trigger activated synovial fibroblasts (MMP1 ELISA); assay type: cell-based; details: Homo sapiens, Fibroblast; Table 3; RASFs, complex trigger, 48 hrs, MMP1 ELISA
[2] = system: TNFα release by human PBMCs; assay: Cytokine release by LPS stimulated human PBMCs (TNFα ELISA); assay type: cell-based; details: PBMC, 24 h, Table 5, LPS 1 μg/mL
Experimental: For the assay PBMCs are seeded at 2.5E6 cells/mL in 160 μL in 96-well plates (Nunc). Serial dilution of the test compounds are made first in DMSO (Sigma) and then diluted 50-fold in M199 medium (Gibco) containing 1% heat-inactivated FBS. Compounds are further 1/10 diluted in the assay plates to obtain final DMSO concentration of 0.2%. Cells are preincubated with the compounds for 1 hr at 37° C., 5% CO2. Then, cells are stimulated with LPS (Escherichia coli serotype 026:B6, Cat. No. L2654, Sigma) that is added in a volume of 20 μL to a final concentration of 1 μg/mL and cells are further cultured for 24 hr. The plates are centrifuged and the supernatant is collected and stored at −80° C. until analysis of appropriate dilutions in ELISAs.
After 4 hr incubation at RT, blocking buffer is removed and plates are washed once with PBST (1×PBS with 0.05% Tween-20 (Sigma)). Then, 40 μL of sample is transferred to the ELISA plates and plates are incubated at 4° C. […] After 2 h of incubation at RT, plates are washed as described above and 35 μL/well of a 1/2000 dilution of streptavidin-HRP conjugate (Cat. No. SNN2004, Biosource) in buffer D is added. After 45 min, plates are washed as described above and incubated for 5 min with 50 μL/well BM Chemiluminescence ELISA Substrate POD (Roche). Readout is performed on the Luminoscan Ascent Luminometer (Labsystems) with an integration time of 100 msec delivering raw data (RLU: relative luminescence units). The following controls are included in the experiments, a maximal signal control, in which the cells are activated by LPS but only the 0.2% DMSO vehicle (and thus no compound) is added. […] A minimal signal control is also included in these experiments. Here, cells are not triggered. […] Where compounds are tested at 8 concentrations (1/3 serial dilution), EC50-values can be calculated by curve fitting of the means of the PIN data achieved for a compound at each test concentration.

[3] = molecular target: T1, MAPKAPK5 (Homo sapiens, UniProt Q8IW41); assay: MAPKAP-K5 assay (FlashPlate kinase assay)
T1 sequence (Q8IW41 1-471 isoform Q8IW41-2): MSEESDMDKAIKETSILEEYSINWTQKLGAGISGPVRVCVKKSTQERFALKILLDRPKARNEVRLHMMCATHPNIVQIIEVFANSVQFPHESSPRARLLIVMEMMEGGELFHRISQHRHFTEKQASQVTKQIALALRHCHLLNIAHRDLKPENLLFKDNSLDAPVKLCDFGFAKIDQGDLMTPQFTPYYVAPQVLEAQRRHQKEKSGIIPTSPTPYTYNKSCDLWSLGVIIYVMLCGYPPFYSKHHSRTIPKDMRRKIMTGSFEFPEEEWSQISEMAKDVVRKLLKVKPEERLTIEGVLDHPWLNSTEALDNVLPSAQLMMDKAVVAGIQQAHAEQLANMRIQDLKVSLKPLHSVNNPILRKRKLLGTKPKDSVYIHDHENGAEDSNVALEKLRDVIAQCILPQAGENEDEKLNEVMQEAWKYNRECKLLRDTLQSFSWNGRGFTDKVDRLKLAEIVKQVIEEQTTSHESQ

Compound | IC50 [3] [µM] | EC50 [1] [µM] | EC50 [2] [µM]
c1nc2c(Nc3ccc(OCCN4CCOCC4)cc3)ncc(-c3cn[nH]c3)n2n1 [Compound 20] | > 1 | > 1 | > 1
CC(C)N1CCN(c2ccc(Nc3ncc(-c4cn[nH]c4)n4ncnc34)cc2C(F)(F)F)CC1 [Compound 171, [4-(4-Isopropylpiperazin-1-yl)-3-trifluoromethylphenyl]-[5-(1H-pyrazol-4-yl)-[1,2,4]triazolo[1,5-a]pyrazin-8-yl]amine] | > 1 | > 1 | 0.501 to 1
CN1CCN(c2ccc(Nc3ncc(-c4ccc(C(N)=O)cc4)n4ncnc34)cc2)CC1 [Compound 3] | > 1 | 0.101 to 0.5 | > 1
NC(=O)c1c(F)cc(-c2cnc(Nc3ccc(N4CCOCC4)cc3)c3ncnn23)cc1F [Compound 14] | > 1 | > 1 | > 1
NC(=O)c1cc(Nc2ncc(-c3cn[nH]c3)n3ncnc23)ccc1N1CCOCC1 [Compound 19, 5-(5-(1H-Pyrazol-4-yl)-[1,2,4]triazolo[1,5-a]pyrazin-8-ylamino)-2-morpholinobenzamide] | > 1 | > 1 | > 1
c1nc2c(Nc3ccc(N4CCOCC4)cc3)ncc(-c3ccc4[nH]ncc4c3)n2n1 [Compound 104] | > 1 | > 1 | > 1
CNC(=O)c1nc(-c2cnc(Nc3ccc(N4CCN(C(C)C)CC4)cc3)c3ncnn23)cs1 [Compound 74] | > 1 | > 1 | > 1
OCc1n[nH]cc1-c1cnc(Nc2ccc(N3CCOCC3)cc2)c2ncnn12 [Compound 70, (4-(8-(4-Morpholinophenylamino)-[1,2,4]triazolo[1,5-a]pyrazin-5-yl)-1H-pyrazol-5-yl)methanol] | > 1 | > 1 | > 1
CNCc1cc(Nc2ncc(-c3cn[nH]c3)n3ncnc23)ccc1N1CCOCC1 [Compound 110] | > 1 | > 1 | > 1
c1nc2c(Nc3ccc(N4CCOCC4)nc3)ncc(-c3cn[nH]c3)n2n1 [Compound 41, (6-[Morpholin-4-yl]pyridin-3-yl)-[5-(1H-pyrazol-4-yl)-[1,2,4]triazolo[1,5-a]pyrazin-8-yl]amine] | > 1 | > 1 | > 1
FC(F)(F)c1cc(Nc2ncc(-c3cn[nH]c3)n3ncnc23)ccc1N1CCOCC1 [Compound 25] | > 1 | > 1 | > 1
O=C1NCc2cc(-c3cnc(NC4CCOCC4)c4ncnn34)ccc21 [Compound 116] | > 1 | > 1 | > 1
FC(F)(F)CN1CCC(c2ccc(Nc3ncc(-c4cn[nH]c4)n4ncnc34)cc2)CC1 [Compound 64] | > 1 | > 1 | > 1
c1nc2c(Nc3ccc(N4CCN(C5CC5)CC4)cc3)ncc(-c3cn[nH]c3)n2n1 [Compound 59, [4-(4-Cyclopropylpiperazin-1-yl)phenyl]-[5-(1H-pyrazol-4-yl)-[1,2,4]triazolo[1,5-a]pyrazin-8-yl]amine] | > 1 | > 1 | > 1
Nc1nc(-c2ccc(-c3cnc(Nc4ccc(N5CCOCC5)cc4)c4ncnn34)cc2)cs1 [Compound 85] | > 1 | > 1 | > 1
CCc1[nH]ncc1-c1cnc(Nc2ccc(N3CCOCC3)cc2)c2ncnn12 [Compound 52, 5-(5-Ethyl-1H-pyrazol-4-yl)-N-(4-morpholinophenyl)-[1,2,4]triazolo[1,5-a]pyrazin-8-amine] | > 1 | > 1 | > 1
c1nc2c(Nc3ccc(N4CCOCC4)cc3)ncc(-c3ccc4ncsc4c3)n2n1 [Compound 66] | > 1 | 0.501 to 1 | > 1
NC(=O)c1ccc(-c2cnc(Nc3ccc(N4CCOCC4)cc3)c3ncnn23)c(F)c1 [Compound 10] | > 1 | 0.501 to 1 | > 1
c1nc2c(Nc3ccc(N4CCOCC4)cc3)ncc(-c3ccsc3)n2n1 [Compound 50, (4-Morpholin-4-ylphenyl)-(5-thiophen-3-yl-[1,2,4]triazolo[1,5-a]pyrazin-8-yl)amine] | > 1 | 0.101 to 0.5 | > 1
O=C1CCC(c2ccc(-c3cnc(Nc4ccc(N5CCOCC5)cc4)c4ncnn34)cc2)=NN1 [Compound 71] | > 1 | > 1 | > 1

More lines, main results first:

IC50 [3] [µM] | Compound | EC50 [1] [µM] | EC50 [2] [µM]
0.001 to 0.1 | CC(C)N1CCN(c2ccc(Nc3ncc(-c4cc(F)c5c(c4)CNC5=O)n4ncnc34)cc2)CC1 [Compound 108, 7-Fluoro-5-{8-[4-(4-isopropylpiperazin-1-yl)-phenylamino]-[1,2,4]triazolo[1,5-a]pyrazin-5-yl}-2,3-dihydroisoindol-1-one] | > 1 | > 1
0.001 to 0.1 | O=C1NCc2cc(-c3cnc(Nc4ccc(N5CCNCC5=O)cc4)c4ncnn34)ccc21 [Compound 105, 5-{8-[4-(2-Oxo-piperazin-1-yl)-phenylamino]-[1,2,4]triazolo[1,5-a]pyrazin-5-yl}-2,3-dihydro-isoindol-1-one] | > 1 | > 1
0.501 to 1 | CN1CCN(c2ccc(Nc3ncc(-c4ccc(C(N)=O)s4)n4ncnc34)cc2)CC1 [Compound 9, 5-{8-[4-(4-Methyl-piperazin-1-yl)-phenylamino]-[1,2,4]triazolo[1,5-a]pyrazin-5-yl}-thiophene-2-carboxylic acid amide] | 0.501 to 1 | 0.101 to 0.5
0.101 to 0.5 | NC(=O)c1cc(-c2cnc(Nc3ccc(N4CCOCC4)nc3)c3ncnn23)cs1 [Compound 47, 4-[8-(6-[Morpholin-4-yl]pyridin-3-ylamino)-[1,2,4]triazolo[1,5-a]pyrazin-5-yl]thiophene-2-carboxylic acid amide] | 0.501 to 1 | > 1
0.501 to 1 | NC(=O)c1cc(-c2cnc(Nc3ccc(N4CCN(CC(F)(F)F)CC4)nc3)c3ncnn23)cs1 [Compound 56, 4-(8-{6-[4-(2,2,2-Trifluoroethyl)piperazin-1-yl]-pyridin-3-ylamino}-[1,2,4]triazolo[1,5-a]pyrazin-5-yl)thiophene-2-carboxylic acid amide] | 0.501 to 1 | > 1
0.501 to 1 | O=C1NCc2cc(-c3cnc(Nc4ccc(N5CCOCC5)cc4)c4ncnn34)sc21 [Compound 113] | 0.101 to 0.5 | > 1
0.001 to 0.1 | CC(C)(C)N1CCN(c2ccc(Nc3ncc(-c4ccc5c(c4)CNC5=O)n4ncnc34)cc2)CC1 [Compound 102, 5-{8-[4-(4-tert-Butyl-piperazin-1-yl)-phenylamino]-[1,2,4]triazolo[1,5-a]pyrazin-5-yl}-2,3-dihydro-isoindol-1-one] | > 1 | > 1
0.501 to 1 | Cc1[nH]ncc1-c1cnc(Nc2ccc(N3CCOCC3)cc2)c2ncnn12 [Compound 12, 5-(5-Methyl-1H-pyrazol-4-yl)-N-(4-morpholinophenyl)-[1,2,4]triazolo[1,5-a]pyrazin-8-amine] | 0.501 to 1 | > 1
0.501 to 1 | CC(C)N1CCN(c2ccc(Nc3ncc(-c4csc(C(N)=O)n4)n4ncnc34)cc2)CC1 [Compound 62, 4-{8-[4-(4-Isopropylpiperazin-1-yl)phenylamino]-[1,2,4]triazolo[1,5-a]pyrazin-5-yl}thiazole-2-carboxylic acid amide] | > 1 | 0.501 to 1
0.101 to 0.5 | O=C1NCc2cc(-c3cnc(NC4CCCC4)c4ncnn34)ccc21 [Compound 181] | > 1 | > 1
0.101 to 0.5 | CC(C)N1CCN(c2ncc(Nc3ncc(-c4ccc5c(c4)CNC5=O)n4ncnc34)cn2)CC1 [Compound 101] | > 1 | > 1
